In US6358885B1, “Substituted phenylheterocyclic herbicides” (Mississippi State University, priority 1992, dated 2002):

Legend:
Test in all cases: Test B preemergence/postemergence greenhouse plant response rating 0 to 10
wild oat = format: in vivo, Avena fatua; conditions: for Plant response rating, Wild oat: 0 to 10 scale
Outline: (§1)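 Test chemicals, dissolved in a non-phytotoxic solvent, were applied to soil at planting and, at the same time, over foliage of seedlings at the one to four leaf stage.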

rape = format: in vivo, Brassica napus; conditions: for Plant response rating, Rape: 0 to 10 scale
Outline: as §1

corn = format: in vivo, Zea mays; conditions: for Plant response rating, Corn: 0 to 10 scale
Outline: as §1

morningglory = format: in vivo, Ipomoea hederacea; conditions: for Plant response rating, Morningglory: 0 to 10 scale
Outline: as §1

sorghum = format: in vivo, Sorghum bicolor; conditions: for Plant response rating, Sorghum: 0 to 10 scale
Outline: as §1

blackgrass = format: in vivo, Alopecurus myosuroides; conditions: for Plant response rating, Blackgrass: 0 to 10 scale
Outline: as §1

cotton = format: in vivo, Gossypium hirsutum; conditions: for Plant response rating, Cotton: 0 to 10 scale
Outline: as §1

wheat = format: in vivo, Triticum aestivum; conditions: for Plant response rating, Wheat: 0 to 10 scale
Outline: as §1

rice = format: in vivo, Oryza sativa; conditions: for Plant response rating, Rice: 0 to 10 scale
Outline: as §1

purple nutsedge = format: in vivo, Cyperus rotundus; conditions: for Plant response rating, Nutsedge: 0 to 10 scale
Outline: as §1

wild buckwheat = format: in vivo, Polygonum convolvulus; conditions: for Plant response rating, Wild buckwheat: 0 to 10 scale
Outline: as §1

cocklebur = format: in vivo, Xanthium pensylvanicum; conditions: for Plant response rating, Cocklebur: 0 to 10 scale
Outline: as §1

lambsquarters = format: in vivo, Chenopodium album; conditions: for Plant response rating, Lambsquarter: 0 to 10 scale
Outline: as §1

soybean = format: in vivo, Glycine max; conditions: for Plant response rating, Soybean: 0 to 10 scale
Outline: as §1

barley = format: in vivo, Hordeum vulgare; conditions: for Plant response rating, Barley: 0 to 10 scale
Outline: as §1

bedstraw = format: in vivo, Galium aparine; conditions: for Plant response rating, Bedstraw: 0 to 10 scale
Outline: as §1

giant foxtail = format: in vivo, Setaria faberii; conditions: for Plant response rating, Giant foxtail: 0 to 10 scale
Outline: as §1

velvetleaf = format: in vivo, Abutilon theophrasti; conditions: for Plant response rating, Velvetleaf: 0 to 10 scale
Outline: as §1

crabgrass = format: in vivo, Digitaria spp.; conditions: for Plant response rating, Crabgrass: 0 to 10 scale
Outline: as §1

chickweed = format: in vivo, Stellaria media; conditions: for Plant response rating, Chickweed: 0 to 10 scale
Outline: as §1

sugar beet = format: in vivo, Beta vulgaris; conditions: for Plant response rating, Sugar beet: 0 to 10 scale
Outline: as §1

barnyardgrass = format: in vivo, Echinochloa crus-galli; conditions: for Plant response rating, Barnyardgrass: 0 to 10 scale
Outline: as §1

cheatgrass = format: in vivo, Bromus secalinus; conditions: for Plant response rating, Cheatgrass: POSTEMERGENCE, 0 to 10 scale
Outline: as §1

SMILES: Oc1cc(-c2nn3c(c2Cl)CCCC3)c(Cl)cc1Cl [Compound 68]
- Plant response rating, Wild oat (wild oat; POSTEMERGENCE, Rate 50 g/ha): 2
- Plant response rating, Wild oat (wild oat; PREEMERGENCE, Rate 50 g/ha): 0
- Plant response rating (0 to 10 scale), Wild oat (wild oat; PREEMERGENCE, Rate 200 g/ha): 0
- Plant response rating, Wild oat (wild oat; Rate 200 g/ha, POSTEMERGENCE): 3
- Plant response rating, Rape (rape; POSTEMERGENCE, Rate 50 g/ha): 3
- Plant response rating, Rape (rape; PREEMERGENCE, Rate 50 g/ha): 0
- Plant response rating (0 to 10 scale), Rape (rape; PREEMERGENCE, Rate 200 g/ha): 0
- Plant response rating, Rape (rape; Rate 200 g/ha, POSTEMERGENCE): 5
- Plant response rating, Corn (corn; POSTEMERGENCE, Rate 50 g/ha): 3
- Plant response rating, Corn (corn; PREEMERGENCE, Rate 50 g/ha): 0
- Plant response rating (0 to 10 scale), Corn (corn; PREEMERGENCE, Rate 200 g/ha): 0
- Plant response rating, Corn (corn; Rate 200 g/ha, POSTEMERGENCE): 4
- Plant response rating, Morningglory (morningglory; POSTEMERGENCE, Rate 50 g/ha): 8
- Plant response rating, Morningglory (morningglory; PREEMERGENCE, Rate 50 g/ha): 0
- Plant response rating (0 to 10 scale), Morningglory (morningglory; PREEMERGENCE, Rate 200 g/ha): 0
- Plant response rating, Morningglory (morningglory; Rate 200 g/ha, POSTEMERGENCE): 8
- Plant response rating, Sorghum (sorghum; POSTEMERGENCE, Rate 50 g/ha): 3
- Plant response rating, Sorghum (sorghum; PREEMERGENCE, Rate 50 g/ha): 0
- Plant response rating (0 to 10 scale), Sorghum (sorghum; PREEMERGENCE, Rate 200 g/ha): 0
- Plant response rating, Sorghum (sorghum; Rate 200 g/ha, POSTEMERGENCE): 4
- Plant response rating, Blackgrass (blackgrass; POSTEMERGENCE, Rate 50 g/ha): 2
- Plant response rating, Blackgrass (blackgrass; PREEMERGENCE, Rate 50 g/ha): 2
- Plant response rating (0 to 10 scale), Blackgrass (blackgrass; PREEMERGENCE, Rate 200 g/ha): 8
- Plant response rating, Blackgrass (blackgrass; Rate 200 g/ha, POSTEMERGENCE): 3
- Plant response rating, Cotton (cotton; POSTEMERGENCE, Rate 50 g/ha): 10
- Plant response rating, Cotton (cotton; PREEMERGENCE, Rate 50 g/ha): 0
- Plant response rating (0 to 10 scale), Cotton (cotton; PREEMERGENCE, Rate 200 g/ha): 0
- Plant response rating, Cotton (cotton; Rate 200 g/ha, POSTEMERGENCE): 10
- Plant response rating, Wheat (wheat; POSTEMERGENCE, Rate 50 g/ha): 3
- Plant response rating, Wheat (wheat; PREEMERGENCE, Rate 50 g/ha): 0
- Plant response rating (0 to 10 scale), Wheat (wheat; PREEMERGENCE, Rate 200 g/ha): 3
- Plant response rating, Wheat (wheat; Rate 200 g/ha, POSTEMERGENCE): 4
- Plant response rating, Rice (rice; POSTEMERGENCE, Rate 50 g/ha): 5
- Plant response rating, Rice (rice; PREEMERGENCE, Rate 50 g/ha): 0
- Plant response rating (0 to 10 scale), Rice (rice; PREEMERGENCE, Rate 200 g/ha): 0
- Plant response rating, Rice (rice; Rate 200 g/ha, POSTEMERGENCE): 5
- Plant response rating, Nutsedge (purple nutsedge; POSTEMERGENCE, Rate 50 g/ha): 2
- Plant response rating, Nutsedge (purple nutsedge; PREEMERGENCE, Rate 50 g/ha): 0
- Plant response rating (0 to 10 scale), Nutsedge (purple nutsedge; PREEMERGENCE, Rate 200 g/ha): 0
- Plant response rating, Nutsedge (purple nutsedge; Rate 200 g/ha, POSTEMERGENCE): 3
- Plant response rating, Wild buckwheat (wild buckwheat; POSTEMERGENCE, Rate 50 g/ha): 10
- Plant response rating, Wild buckwheat (wild buckwheat; PREEMERGENCE, Rate 50 g/ha): 0
- Plant response rating (0 to 10 scale), Wild buckwheat (wild buckwheat; PREEMERGENCE, Rate 200 g/ha): 4
- Plant response rating, Wild buckwheat (wild buckwheat; Rate 200 g/ha, POSTEMERGENCE): 10
- Plant response rating, Cocklebur (cocklebur; POSTEMERGENCE, Rate 50 g/ha): 6
- Plant response rating, Cocklebur (cocklebur; PREEMERGENCE, Rate 50 g/ha): 0
- Plant response rating (0 to 10 scale), Cocklebur (cocklebur; PREEMERGENCE, Rate 200 g/ha): 0
- Plant response rating, Cocklebur (cocklebur; Rate 200 g/ha, POSTEMERGENCE): 7
- Plant response rating, Lambsquarter (lambsquarters; POSTEMERGENCE, Rate 50 g/ha): 10
- Plant response rating, Lambsquarter (lambsquarters; PREEMERGENCE, Rate 50 g/ha): 6
- Plant response rating (0 to 10 scale), Lambsquarter (lambsquarters; PREEMERGENCE, Rate 200 g/ha): 0
- Plant response rating, Lambsquarter (lambsquarters; Rate 200 g/ha, POSTEMERGENCE): 10
- Plant response rating, Soybean (soybean; POSTEMERGENCE, Rate 50 g/ha): 4
- Plant response rating, Soybean (soybean; PREEMERGENCE, Rate 50 g/ha): 0
- Plant response rating (0 to 10 scale), Soybean (soybean; PREEMERGENCE, Rate 200 g/ha): 0
- Plant response rating, Soybean (soybean; Rate 200 g/ha, POSTEMERGENCE): 6
- Plant response rating, Barley (barley; POSTEMERGENCE, Rate 50 g/ha): 3
- Plant response rating, Barley (barley; PREEMERGENCE, Rate 50 g/ha): 0
- Plant response rating (0 to 10 scale), Barley (barley; PREEMERGENCE, Rate 200 g/ha): 0
- Plant response rating, Barley (barley; Rate 200 g/ha, POSTEMERGENCE): 3
- Plant response rating, Bedstraw (bedstraw; POSTEMERGENCE, Rate 50 g/ha): 7
- Plant response rating, Bedstraw (bedstraw; PREEMERGENCE, Rate 50 g/ha): 0
- Plant response rating (0 to 10 scale), Bedstraw (bedstraw; PREEMERGENCE, Rate 200 g/ha): 2
- Plant response rating, Bedstraw (bedstraw; Rate 200 g/ha, POSTEMERGENCE): 9
- Plant response rating, Giant foxtail (giant foxtail; POSTEMERGENCE, Rate 50 g/ha): 4
- Plant response rating, Giant foxtail (giant foxtail; PREEMERGENCE, Rate 50 g/ha): 0
- Plant response rating (0 to 10 scale), Giant foxtail (giant foxtail; PREEMERGENCE, Rate 200 g/ha): 0
- Plant response rating, Giant foxtail (giant foxtail; Rate 200 g/ha, POSTEMERGENCE): 4
- Plant response rating, Velvetleaf (velvetleaf; POSTEMERGENCE, Rate 50 g/ha): 8
- Plant response rating, Velvetleaf (velvetleaf; PREEMERGENCE, Rate 50 g/ha): 0
- Plant response rating (0 to 10 scale), Velvetleaf (velvetleaf; PREEMERGENCE, Rate 200 g/ha): 9
- Plant response rating, Velvetleaf (velvetleaf; Rate 200 g/ha, POSTEMERGENCE): 10
- Plant response rating, Crabgrass (crabgrass; POSTEMERGENCE, Rate 50 g/ha): 3
- Plant response rating, Crabgrass (crabgrass; PREEMERGENCE, Rate 50 g/ha): 0
- Plant response rating (0 to 10 scale), Crabgrass (crabgrass; PREEMERGENCE, Rate 200 g/ha): 2
- Plant response rating, Crabgrass (crabgrass; Rate 200 g/ha, POSTEMERGENCE): 4
- Plant response rating, Chickweed (chickweed; POSTEMERGENCE, Rate 50 g/ha): 0
- Plant response rating, Chickweed (chickweed; PREEMERGENCE, Rate 50 g/ha): 2
- Plant response rating (0 to 10 scale), Chickweed (chickweed; PREEMERGENCE, Rate 200 g/ha): 2
- Plant response rating, Chickweed (chickweed; Rate 200 g/ha, POSTEMERGENCE): 1
- Plant response rating, Sugar beet (sugar beet; POSTEMERGENCE, Rate 50 g/ha): 9
- Plant response rating, Sugar beet (sugar beet; PREEMERGENCE, Rate 50 g/ha): 0
- Plant response rating (0 to 10 scale), Sugar beet (sugar beet; PREEMERGENCE, Rate 200 g/ha): 9
- Plant response rating, Sugar beet (sugar beet; Rate 200 g/ha, POSTEMERGENCE): 10
- Plant response rating, Barnyardgrass (barnyardgrass; POSTEMERGENCE, Rate 50 g/ha): 2
- Plant response rating, Barnyardgrass (barnyardgrass; PREEMERGENCE, Rate 50 g/ha): 0
- Plant response rating (0 to 10 scale), Barnyardgrass (barnyardgrass; PREEMERGENCE, Rate 200 g/ha): 0
- Plant response rating, Barnyardgrass (barnyardgrass; Rate 200 g/ha, POSTEMERGENCE): 3
- Plant response rating, Cheatgrass (cheatgrass; Rate 50 g/ha): 2
- Plant response rating (0 to 10 scale), Cheatgrass (cheatgrass; PREEMERGENCE, Rate 200 g/ha): 3
- Plant response rating, Cheatgrass (cheatgrass; Rate 200 g/ha): 3
